What was measured:
FES (human) = FES (human) (UniProt P07332); test: Z-Lyte, FRET
ABL2 (human) = ABL2 (human) (UniProt P42684); test: KINOMEscan competition binding; settings: compound 10.0 µM
ACVR2A (human) = ACVR2A (human) (UniProt P27037); test: KINOMEscan competition binding; settings: compound 10.0 µM
AKT1 (human) = AKT1 (human) (UniProt P31749); test: KINOMEscan competition binding; settings: compound 10.0 µM
ANKK1 (human) = ANKK1 (human) (UniProt Q8NFD2); test: KINOMEscan competition binding; settings: compound 10.0 µM
AURKA (human) = AURKA (human) (UniProt O14965); test: KINOMEscan competition binding; settings: compound 10.0 µM
BMP2K (human) = BMP2K (human) (UniProt Q9NSY1); test: KINOMEscan competition binding; settings: compound 10.0 µM
BRSK1 (human) = BRSK1 (human) (UniProt Q8TDC3); test: KINOMEscan competition binding; settings: compound 10.0 µM
CAMK1G (human) = CAMK1G (human) (UniProt Q96NX5); test: KINOMEscan competition binding; settings: compound 10.0 µM
CAMK2A (human) = CAMK2A (human) (UniProt Q9UQM7); test: KINOMEscan competition binding; settings: compound 10.0 µM
CAMK2G (human) = CAMK2G (human) (UniProt Q13555); test: KINOMEscan competition binding; settings: compound 10.0 µM
CDC42BPG (human) = CDC42BPG (human) (UniProt Q6DT37); test: KINOMEscan competition binding; settings: compound 10.0 µM
CDK15 (human) = CDK15 (human) (UniProt Q96Q40); test: KINOMEscan competition binding; settings: compound 10.0 µM
CHEK1 (human) = CHEK1 (human) (UniProt O14757); test: KINOMEscan competition binding; settings: compound 10.0 µM
CSF1R (human) = CSF1R (human) (UniProt P07333); test: KINOMEscan competition binding; settings: compound 10.0 µM
DCLK1 (human) = DCLK1 (human) (UniProt O15075); test: KINOMEscan competition binding; settings: compound 10.0 µM
[1] = system: EGFR (human), P00533 [746-750 del]; test: KINOMEscan competition binding; settings: compound 10.0 µM
[2] = system: EGFR (human), P00533 [G719C]; test: KINOMEscan competition binding; settings: compound 10.0 µM
[3] = system: EGFR (human), P00533 [L858R]; test: KINOMEscan competition binding; settings: compound 10.0 µM
EPHB3 (human) = EPHB3 (human) (UniProt P54753); test: KINOMEscan competition binding; settings: compound 10.0 µM
[4] = system: FGFR3 (human), P22607 [G697C]; test: KINOMEscan competition binding; settings: compound 10.0 µM
[5] = system: FLT3 (human), P36888 [D835Y]; test: KINOMEscan competition binding; settings: compound 10.0 µM
FYN (human) = FYN (human) (UniProt P06241); test: KINOMEscan competition binding; settings: compound 10.0 µM
IGF1R (human) = IGF1R (human) (UniProt P08069); test: KINOMEscan competition binding; settings: compound 10.0 µM
[6] = biological target: JAK1 JH2 pseudokinase (human) (UniProt P23458); test: KINOMEscan competition binding; settings: compound 10.0 µM
KIT (human) = KIT (human) (UniProt P10721); test: KINOMEscan competition binding; settings: compound 10.0 µM
LIMK2 (human) = LIMK2 (human) (UniProt P53671); test: KINOMEscan competition binding; settings: compound 10.0 µM
MAP3K5 (human) = MAP3K5 (human) (UniProt Q99683); test: KINOMEscan competition binding; settings: compound 10.0 µM
MAP4K3 (human) = MAP4K3 (human) (UniProt Q8IVH8); test: KINOMEscan competition binding; settings: compound 10.0 µM
MAPK10 (human) = MAPK10 (human) (UniProt P53779); test: KINOMEscan competition binding; settings: compound 10.0 µM
NLK (human) = NLK (human) (UniProt Q9UBE8); test: KINOMEscan competition binding; settings: compound 10.0 µM
PAK6 (human) = PAK6 (human) (UniProt Q9NQU5); test: KINOMEscan competition binding; settings: compound 10.0 µM
PIK3CD (human) = PIK3CD (human) (UniProt O00329); test: KINOMEscan competition binding; settings: compound 10.0 µM
PRKCD (human) = PRKCD (human) (UniProt Q05655); test: KINOMEscan competition binding; settings: compound 10.0 µM
PRKX (human) = PRKX (human) (UniProt P51817); test: KINOMEscan competition binding; settings: compound 10.0 µM
PTK6 (human) = PTK6 (human) (UniProt Q13882); test: KINOMEscan competition binding; settings: compound 10.0 µM
RIOK3 (human) = RIOK3 (human) (UniProt O14730); test: KINOMEscan competition binding; settings: compound 10.0 µM
ROS1 (human) = ROS1 (human) (UniProt P08922); test: KINOMEscan competition binding; settings: compound 10.0 µM
RPS6KA5 KD2 (human) = RPS6KA5 KD2 (human) (UniProt O75582); test: KINOMEscan competition binding; settings: compound 10.0 µM
STK17B (human) = STK17B (human) (UniProt O94768); test: KINOMEscan competition binding; settings: compound 10.0 µM
STK36 (human) = STK36 (human) (UniProt Q9NRP7); test: KINOMEscan competition binding; settings: compound 10.0 µM
WEE1 (human) = WEE1 (human) (UniProt P30291); test: KINOMEscan competition binding; settings: compound 10.0 µM

Chain of FGFR3 (human), P22607 [G697C] (P22607 whole entry G697C, looked up): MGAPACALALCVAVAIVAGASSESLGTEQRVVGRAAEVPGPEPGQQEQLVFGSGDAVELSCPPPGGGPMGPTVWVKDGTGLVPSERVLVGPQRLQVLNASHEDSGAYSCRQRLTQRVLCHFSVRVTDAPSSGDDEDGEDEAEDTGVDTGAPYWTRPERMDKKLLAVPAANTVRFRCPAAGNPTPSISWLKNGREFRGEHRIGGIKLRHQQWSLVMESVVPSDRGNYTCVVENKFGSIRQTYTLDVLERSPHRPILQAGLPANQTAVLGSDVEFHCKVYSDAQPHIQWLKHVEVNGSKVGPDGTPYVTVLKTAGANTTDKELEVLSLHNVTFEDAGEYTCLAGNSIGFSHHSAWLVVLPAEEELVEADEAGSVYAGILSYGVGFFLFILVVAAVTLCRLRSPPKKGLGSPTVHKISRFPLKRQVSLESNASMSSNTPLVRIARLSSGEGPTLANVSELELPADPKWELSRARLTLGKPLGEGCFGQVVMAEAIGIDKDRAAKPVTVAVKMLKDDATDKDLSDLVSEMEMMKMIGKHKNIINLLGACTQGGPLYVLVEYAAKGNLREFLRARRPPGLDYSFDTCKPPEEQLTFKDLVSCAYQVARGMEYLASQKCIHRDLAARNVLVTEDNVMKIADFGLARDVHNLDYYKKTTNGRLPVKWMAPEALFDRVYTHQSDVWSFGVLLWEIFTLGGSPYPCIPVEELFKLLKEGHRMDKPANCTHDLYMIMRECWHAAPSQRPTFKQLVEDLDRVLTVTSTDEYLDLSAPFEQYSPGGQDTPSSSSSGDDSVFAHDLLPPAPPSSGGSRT
Chain of EPHB3 (human) (P54753 whole entry, looked up): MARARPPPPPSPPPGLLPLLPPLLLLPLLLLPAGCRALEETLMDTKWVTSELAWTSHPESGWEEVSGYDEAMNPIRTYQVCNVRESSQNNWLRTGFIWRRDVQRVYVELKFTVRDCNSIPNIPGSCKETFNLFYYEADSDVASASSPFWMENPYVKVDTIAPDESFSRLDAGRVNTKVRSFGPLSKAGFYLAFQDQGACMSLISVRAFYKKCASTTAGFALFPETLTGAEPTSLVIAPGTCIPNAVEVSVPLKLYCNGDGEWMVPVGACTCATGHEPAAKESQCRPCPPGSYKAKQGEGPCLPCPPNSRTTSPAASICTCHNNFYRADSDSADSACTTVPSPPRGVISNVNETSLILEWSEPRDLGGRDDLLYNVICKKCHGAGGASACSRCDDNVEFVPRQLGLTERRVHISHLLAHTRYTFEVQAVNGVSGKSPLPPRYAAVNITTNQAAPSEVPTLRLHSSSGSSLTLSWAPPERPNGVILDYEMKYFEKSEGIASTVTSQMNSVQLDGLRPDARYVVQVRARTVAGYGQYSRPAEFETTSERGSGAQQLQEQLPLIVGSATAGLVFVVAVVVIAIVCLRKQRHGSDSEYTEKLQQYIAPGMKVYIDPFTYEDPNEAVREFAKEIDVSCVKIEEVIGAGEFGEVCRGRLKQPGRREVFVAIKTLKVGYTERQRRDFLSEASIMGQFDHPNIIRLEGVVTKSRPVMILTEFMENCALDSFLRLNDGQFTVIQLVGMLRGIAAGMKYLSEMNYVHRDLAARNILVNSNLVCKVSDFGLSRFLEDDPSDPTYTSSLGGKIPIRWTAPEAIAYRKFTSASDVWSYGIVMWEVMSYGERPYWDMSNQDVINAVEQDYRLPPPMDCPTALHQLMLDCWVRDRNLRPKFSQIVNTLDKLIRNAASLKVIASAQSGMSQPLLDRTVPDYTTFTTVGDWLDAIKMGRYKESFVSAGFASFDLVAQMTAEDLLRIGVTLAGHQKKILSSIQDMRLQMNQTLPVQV
Chain of FYN (human) (P06241 whole entry, looked up): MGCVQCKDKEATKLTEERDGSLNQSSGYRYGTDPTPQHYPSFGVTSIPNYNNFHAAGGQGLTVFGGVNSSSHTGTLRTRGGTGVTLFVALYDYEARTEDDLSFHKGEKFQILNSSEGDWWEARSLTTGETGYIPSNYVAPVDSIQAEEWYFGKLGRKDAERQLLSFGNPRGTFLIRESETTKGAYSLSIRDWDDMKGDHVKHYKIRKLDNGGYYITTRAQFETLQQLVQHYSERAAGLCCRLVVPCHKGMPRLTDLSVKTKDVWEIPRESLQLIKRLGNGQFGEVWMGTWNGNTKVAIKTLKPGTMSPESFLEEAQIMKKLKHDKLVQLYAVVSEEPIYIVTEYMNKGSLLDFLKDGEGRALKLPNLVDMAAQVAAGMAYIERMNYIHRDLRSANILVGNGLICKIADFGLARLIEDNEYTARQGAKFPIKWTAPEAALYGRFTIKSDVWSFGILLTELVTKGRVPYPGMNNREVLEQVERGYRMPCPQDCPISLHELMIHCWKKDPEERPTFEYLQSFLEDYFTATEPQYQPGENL
Chain of PIK3CD (human) (O00329 whole entry, looked up): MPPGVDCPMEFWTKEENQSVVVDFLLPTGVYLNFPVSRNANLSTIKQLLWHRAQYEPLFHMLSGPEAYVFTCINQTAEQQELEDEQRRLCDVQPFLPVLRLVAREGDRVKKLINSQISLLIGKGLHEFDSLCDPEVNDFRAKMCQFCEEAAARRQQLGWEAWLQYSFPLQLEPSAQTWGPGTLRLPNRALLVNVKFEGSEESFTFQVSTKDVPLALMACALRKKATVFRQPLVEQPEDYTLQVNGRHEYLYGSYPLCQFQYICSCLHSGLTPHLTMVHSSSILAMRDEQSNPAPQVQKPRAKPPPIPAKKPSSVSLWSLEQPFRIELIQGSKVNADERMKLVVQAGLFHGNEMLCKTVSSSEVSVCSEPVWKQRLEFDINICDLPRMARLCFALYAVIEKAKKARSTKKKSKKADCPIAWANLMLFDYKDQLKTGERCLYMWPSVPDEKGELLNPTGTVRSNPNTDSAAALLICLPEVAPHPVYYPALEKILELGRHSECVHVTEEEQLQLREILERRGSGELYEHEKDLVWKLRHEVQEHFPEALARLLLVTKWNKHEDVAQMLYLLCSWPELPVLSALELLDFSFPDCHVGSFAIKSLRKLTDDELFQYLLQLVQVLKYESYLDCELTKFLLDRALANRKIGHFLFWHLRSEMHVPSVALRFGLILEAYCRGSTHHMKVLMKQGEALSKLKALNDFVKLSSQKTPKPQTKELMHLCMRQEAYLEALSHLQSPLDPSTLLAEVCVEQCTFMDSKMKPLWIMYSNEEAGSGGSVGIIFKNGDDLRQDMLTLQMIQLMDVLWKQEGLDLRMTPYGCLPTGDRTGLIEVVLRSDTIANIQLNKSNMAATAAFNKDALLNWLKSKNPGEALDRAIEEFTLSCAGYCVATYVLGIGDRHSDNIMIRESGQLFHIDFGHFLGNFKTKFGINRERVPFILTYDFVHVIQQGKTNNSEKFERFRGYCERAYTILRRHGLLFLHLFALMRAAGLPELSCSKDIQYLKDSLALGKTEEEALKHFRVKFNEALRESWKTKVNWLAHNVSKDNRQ
Chain of PTK6 (human) (Q13882 whole entry, looked up): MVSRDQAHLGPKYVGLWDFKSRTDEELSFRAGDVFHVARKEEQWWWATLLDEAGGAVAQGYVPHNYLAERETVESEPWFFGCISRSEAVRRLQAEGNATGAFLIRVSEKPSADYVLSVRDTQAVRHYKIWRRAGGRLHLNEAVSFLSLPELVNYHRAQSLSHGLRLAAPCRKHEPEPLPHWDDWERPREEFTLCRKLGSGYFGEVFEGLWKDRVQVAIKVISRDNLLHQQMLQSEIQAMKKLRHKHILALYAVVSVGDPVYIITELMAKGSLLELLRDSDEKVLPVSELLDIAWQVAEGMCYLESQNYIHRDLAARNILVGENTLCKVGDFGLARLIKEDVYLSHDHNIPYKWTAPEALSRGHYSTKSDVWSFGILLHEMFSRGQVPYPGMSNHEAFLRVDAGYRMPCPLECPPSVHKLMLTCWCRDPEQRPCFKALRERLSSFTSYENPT
Chain of RPS6KA5 KD2 (human) (O75582 whole entry, looked up): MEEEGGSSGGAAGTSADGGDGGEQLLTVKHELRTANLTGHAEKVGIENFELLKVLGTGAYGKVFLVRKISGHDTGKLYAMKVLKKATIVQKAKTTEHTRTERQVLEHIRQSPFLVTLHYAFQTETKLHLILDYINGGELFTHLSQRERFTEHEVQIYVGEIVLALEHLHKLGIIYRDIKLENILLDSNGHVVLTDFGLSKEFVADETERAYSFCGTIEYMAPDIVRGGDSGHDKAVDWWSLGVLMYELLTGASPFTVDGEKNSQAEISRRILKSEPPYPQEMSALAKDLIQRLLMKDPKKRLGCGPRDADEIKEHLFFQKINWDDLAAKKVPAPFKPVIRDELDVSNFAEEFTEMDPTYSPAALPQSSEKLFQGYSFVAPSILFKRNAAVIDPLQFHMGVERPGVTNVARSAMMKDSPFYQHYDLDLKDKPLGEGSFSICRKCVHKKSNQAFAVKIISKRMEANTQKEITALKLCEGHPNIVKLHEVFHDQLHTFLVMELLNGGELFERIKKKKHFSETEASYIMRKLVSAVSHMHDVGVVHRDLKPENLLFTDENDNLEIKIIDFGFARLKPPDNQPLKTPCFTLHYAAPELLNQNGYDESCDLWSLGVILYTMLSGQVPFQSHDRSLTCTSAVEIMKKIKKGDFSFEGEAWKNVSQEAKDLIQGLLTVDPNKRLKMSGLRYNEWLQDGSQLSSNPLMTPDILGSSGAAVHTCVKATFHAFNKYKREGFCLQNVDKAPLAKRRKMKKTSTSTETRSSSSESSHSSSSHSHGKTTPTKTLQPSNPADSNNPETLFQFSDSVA
Chain of STK17B (human) (O94768 whole entry, looked up): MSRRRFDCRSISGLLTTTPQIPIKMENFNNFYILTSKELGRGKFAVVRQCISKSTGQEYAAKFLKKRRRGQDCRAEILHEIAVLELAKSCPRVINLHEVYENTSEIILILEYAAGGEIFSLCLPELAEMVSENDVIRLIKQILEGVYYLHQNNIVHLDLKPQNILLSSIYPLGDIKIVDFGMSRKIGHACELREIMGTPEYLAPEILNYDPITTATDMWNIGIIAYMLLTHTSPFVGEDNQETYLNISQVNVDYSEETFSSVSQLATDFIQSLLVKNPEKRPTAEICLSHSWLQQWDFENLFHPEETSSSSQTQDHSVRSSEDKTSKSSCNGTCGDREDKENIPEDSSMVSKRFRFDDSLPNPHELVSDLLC

`CCOc1cc(N2CCC(N3CCCCC3)CC2)ccc1Nc1nc(Nc2ccccc2S(=O)(=O)C(C)C)c2cn[nH]c2n1` was tested. Which IC50 (FES (human)) did it give?
The IC50 was 67 µM.

What about the kinase still bound, per cent of control (ABL2 (human)) of the same compound?
The kinase still bound, per cent of control was 97%.

What about the kinase still bound, per cent of control (ACVR2A (human)) of the same compound?
The kinase still bound, per cent of control was 100%.

What about the kinase still bound, per cent of control (AKT1 (human)) of the same compound?
Its kinase still bound, per cent of control is 100%.

And the kinase still bound, per cent of control (ANKK1 (human))?
The kinase still bound, per cent of control was 100%.

What about the kinase still bound, per cent of control (AURKA (human)) of the same compound?
Its kinase still bound, per cent of control is 100%.

What about the kinase still bound, per cent of control (BMP2K (human)) of the same compound?
The kinase still bound, per cent of control was 47%.

And the kinase still bound, per cent of control (BRSK1 (human))?
Its kinase still bound, per cent of control is 100%.

And the kinase still bound, per cent of control (CAMK1G (human))?
Its kinase still bound, per cent of control is 26%.

And the kinase still bound, per cent of control (CAMK2A (human))?
Its kinase still bound, per cent of control is 34%.

What about the kinase still bound, per cent of control (CAMK2G (human)) of the same compound?
Its kinase still bound, per cent of control is 71%.

And the kinase still bound, per cent of control (CDC42BPG (human))?
The kinase still bound, per cent of control was 100%.

And the kinase still bound, per cent of control (CDK15 (human))?
The kinase still bound, per cent of control was 100%.

What about the kinase still bound, per cent of control (CHEK1 (human)) of the same compound?
The kinase still bound, per cent of control was 100%.

And the kinase still bound, per cent of control (CSF1R (human))?
Its kinase still bound, per cent of control is 99%.

And the kinase still bound, per cent of control (DCLK1 (human))?
The kinase still bound, per cent of control was 5.2%.

What about the kinase still bound, per cent of control [1] of the same compound?
Its kinase still bound, per cent of control is 20%.

And the kinase still bound, per cent of control [2]?
Its kinase still bound, per cent of control is 81%.

And the kinase still bound, per cent of control [3]?
The kinase still bound, per cent of control was 6.6%.

What about the kinase still bound, per cent of control (EPHB3 (human)) of the same compound?
The kinase still bound, per cent of control was 100%.

What about the kinase still bound, per cent of control [4] of the same compound?
Its kinase still bound, per cent of control is 97%.

And the kinase still bound, per cent of control [5]?
The kinase still bound, per cent of control was 59%.

What about the kinase still bound, per cent of control (FYN (human)) of the same compound?
The kinase still bound, per cent of control was 100%.

What about the kinase still bound, per cent of control (IGF1R (human)) of the same compound?
The kinase still bound, per cent of control was 0.25%.

What about the kinase still bound, per cent of control [6] of the same compound?
The kinase still bound, per cent of control was 1.3%.

And the kinase still bound, per cent of control (KIT (human))?
Its kinase still bound, per cent of control is 87%.

And the kinase still bound, per cent of control (LIMK2 (human))?
The kinase still bound, per cent of control was 51%.

What about the kinase still bound, per cent of control (MAP3K5 (human)) of the same compound?
Its kinase still bound, per cent of control is 100%.

What about the kinase still bound, per cent of control (MAP4K3 (human)) of the same compound?
The kinase still bound, per cent of control was 10%.

And the kinase still bound, per cent of control (MAPK10 (human))?
Its kinase still bound, per cent of control is 7.2%.

And the kinase still bound, per cent of control (NLK (human))?
The kinase still bound, per cent of control was 97%.

And the kinase still bound, per cent of control (PAK6 (human))?
Its kinase still bound, per cent of control is 100%.

And the kinase still bound, per cent of control (PIK3CD (human))?
Its kinase still bound, per cent of control is 100%.

What about the kinase still bound, per cent of control (PRKCD (human)) of the same compound?
Its kinase still bound, per cent of control is 100%.

And the kinase still bound, per cent of control (PRKX (human))?
The kinase still bound, per cent of control was 100%.

What about the kinase still bound, per cent of control (PTK6 (human)) of the same compound?
Its kinase still bound, per cent of control is 10%.

And the kinase still bound, per cent of control (RIOK3 (human))?
The kinase still bound, per cent of control was 88%.

And the kinase still bound, per cent of control (ROS1 (human))?
The kinase still bound, per cent of control was 5.8%.

And the kinase still bound, per cent of control (RPS6KA5 KD2 (human))?
Its kinase still bound, per cent of control is 100%.

And the kinase still bound, per cent of control (STK17B (human))?
Its kinase still bound, per cent of control is 100%.

And the kinase still bound, per cent of control (STK36 (human))?
Its kinase still bound, per cent of control is 100%.

And the kinase still bound, per cent of control (WEE1 (human))?
Its kinase still bound, per cent of control is 100%.

From the kinase profiling compilation of Christmann-Franck et al. (2016)
